The source of these data is patent publication US20050059726A1, “Pyrrolidine-2-ones as factor xa inhibitors” (priority 2001, published 2005).

pKi: −log10 of the molar value. Structures can show the parent of a compound that is named as a salt.

Test [1] concerns the target T1, human Factor Xa (Homo sapiens, UniProt P00742). Nature of the test: In vitro assay for inhibition of Factor Xa (1), chromogenic assay. As to conditions: substrate N-α-benzyloxycarbonyl-D-Arg-Gly-Arg-p-nitroanilide 200 μM, Ki calculated from IC50. It is filed as biochemical. How it is done:
• 1. Klimkowski, Valentine Joseph; Kyle, Jeffrey Alan; Masters, John Joseph; Wiley, Michael Robert. PCT Int. Appl. (2000), WO 0039092. In Vitro Assay for Inhibition of Factor Xa (1)
Compounds were diluted from a 10 mM stock solution in dimethylsulfoxide at appropriate concentrations. Assay was performed at room temperature using buffer consisting of: 50 mM Tris-HCl, 150 mM NaCl, 5 mM CaCl2, pH 7.4. containing human Factor Xa (final conc. of 0.0015 U,ml^−1). Compound and enzyme were preincubated for 15 min prior to addition of the substrate (final conc. of 200 μM). The reaction was stopped after 30 min with the addition of soybean trypsin inhibitor or H-D-PHE-PRO-ARG-Chloromethylketone. BioTek EL340 or Tecan Spectrafluoro Plus plate readers were used to monitor the absorbance at 405 nm. To obtain IC50 values the data were analysed using ActivityBase® and XLfit®.
Calculation of Ki values:
Ki=IC50/(1+[Substrate]/Km)
The Ki value for the above assay can be obtained by dividing the IC50 value by 1.6.

For test [2], the target named is T1, human Factor Xa. Description: In vitro assay for inhibition of Factor Xa (2), fluorogenic assay. The test is classed as biochemical. As to conditions: substrate Rhodamine 110, bis-(CBZ-glycylglycyl-L-arginine amide 10 μM), Ki calculated from IC50. In a few lines:
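Enzyme (final 0.0003 U/mL) preincubated 15 min with compound at room temperature in 50 mM Tris-HCl, 150 mM NaCl, 5 mM CaCl2, pH 7.4, then rhodamine 110 bis-(CBZ-Gly-Gly-Arg amide) substrate added (final 10 μM).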

T1 sequence (P00742 235-488 limits assumed): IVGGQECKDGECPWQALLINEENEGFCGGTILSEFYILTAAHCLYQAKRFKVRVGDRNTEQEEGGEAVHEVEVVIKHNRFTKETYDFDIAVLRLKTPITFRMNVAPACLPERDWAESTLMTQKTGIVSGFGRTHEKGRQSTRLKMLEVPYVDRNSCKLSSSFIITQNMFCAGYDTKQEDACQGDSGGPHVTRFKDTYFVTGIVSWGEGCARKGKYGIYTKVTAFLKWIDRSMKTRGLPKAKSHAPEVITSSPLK
T1 sequence (P00742 41-179 partner limits assumed): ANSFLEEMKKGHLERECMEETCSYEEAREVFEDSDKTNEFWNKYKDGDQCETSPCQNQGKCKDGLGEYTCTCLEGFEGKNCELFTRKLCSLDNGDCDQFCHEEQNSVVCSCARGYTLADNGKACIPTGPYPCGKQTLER

With `CN(C)c1ccc(N2CC[C@H](NS(=O)(=O)c3ccc4cc(Cl)ccc4c3)C2=O)cc1` [Example 2, 6-Chloro-N-{(3S)-1-[4-(dimethylamino)phenyl]-2-oxopyrrolidin-3-yl}naphthalene-2-sulfonamide], the pKi on human Factor Xa [1] was above 7.70.
For the molecule `CNS(=O)(=O)c1ccccc1-c1ccc(N2CC[C@H](NS(=O)(=O)/C=C/c3ccc(Cl)s3)C2=O)c(F)c1` [Example 19, 4′-[(3S)-3-({[(E)-2-(5-Chlorothien-2-yl)ethenyl]sulfonyl}amino)-2-oxopyrrolidin-1-yl]-3′-fluoro-N-methyl-1,1′-biphenyl-2-sulfonamide], the pKi at human Factor Xa [1] is above 8.00.
In the case of `CS(=O)(=O)Nc1ccccc1-c1ccc(N2CC[C@H](NS(=O)(=O)/C=C/c3ccc(Cl)s3)C2=O)nc1` [Example 21, (E)-2-(5-Chlorothien-2-yl)-N-[(3S)-1-(5-{2-[(methylsulfonyl)amino]phenyl}pyridin-2-yl)-2-oxopyrrolidin-3-yl]ethenesulfonamide], the pKi at human Factor Xa [1] was above 7.70.
As for `CC(O)c1ccc(N2CC[C@H](NS(=O)(=O)/C=C/c3ccc(Cl)s3)C2=O)c(F)c1` (stereo partly drawn) [Example 135, (E)-2-(5-Chlorothien-2-yl)-N-{(3S)-1-[2-fluoro-4-(1-hydroxyethyl)phenyl]-2-oxopyrrolidin-3-yl}ethenesulfonamide], the pKi on human Factor Xa [2] was above 6.70.
With `C/C(=C\S(=O)(=O)N[C@H]1CCN(c2ccc(I)cn2)C1=O)c1ccc(Cl)s1` [Example 136], the negative-log Ki (pKi) on human Factor Xa [2] is above 8.00.
Same read-out and setting: to `C/C(=C\S(=O)(=O)N[C@H]1CCN(c2ccc(NS(C)(=O)=O)cc2F)C1=O)c1ccc(Cl)s1` [Example 137, (1E)-2-(5-Chlorothien-2-yl)-N-((3S)-1-{2-fluoro-4-[(methylsulfonyl)amino]phenyl}-2-oxopyrrolidin-3-yl)prop-1-ene-1-sulfonamide] belongs above 7.70; to `CC(=O)c1ccc(N2CC[C@H](NS(=O)(=O)/C=C/c3ccc(Cl)s3)C2=O)cc1` [Example 138, (E)-N-[(3S)-1-(4-Acetylphenyl)-2-oxopyrrolidin-3-yl]-2-(5-chlorothien-2-yl)ethenesulfonamide], above 6.70.
Turning to `NC(=O)CN([C@H]1CCN(c2ccc(-c3ccccc3S(N)(=O)=O)cc2F)C1=O)S(=O)(=O)c1cc2ccc(Cl)cc2s1` [Example 140, 2-{(6-Chloro-benzo[b]thiophene-2-sulphonyl)-[(S)-1-(3-fluoro-2′-sulfamoyl-biphenyl-4-yl)-2-oxo-pyrrolidin-3-yl]-amino}-acetamide Formate], the negative-log Ki (pKi) at human Factor Xa [2] was above 8.00.
In the case of `C/C(=C\S(=O)(=O)N[C@H]1CCN(c2ccc(-n3ccnc3C[N+](C)(C)CC(N)=O)cc2F)C1=O)c1ccc(Cl)s1` [Example 142, 2-Amino-N-[(1-{4-[(3S)-3-({[(1E)-2-(5-chlorothien-2-yl)prop-1-enyl]sulfonyl}amino)-2-oxopyrrolidin-1-yl]-3-fluorophenyl}-1H-imidazol-2-yl)methyl]-N,N-dimethyl-2-oxoethanaminium formate], the pKi on human Factor Xa [2] was above 8.00.
With `C[N+](C)(CC(N)=O)Cc1nccn1-c1ccc(N2CC[C@H](NS(=O)(=O)CCc3ccc(Cl)s3)C2=O)c(F)c1` [Example 143, 2-Amino-N-[(1-{4-[(3S)-3-({[2-(5-chlorothien-2-yl)ethyl]sulfonyl}amino)-2-oxopyrrolidin-1-yl]-3-fluorophenyl}-1H-imidazol-2-yl)methyl]-N,N-dimethyl-2-oxoethanaminium Formate], the pKi at human Factor Xa [2] was above 8.00.
For the molecule `C[N+](C)(CC(N)=O)Cc1nccn1-c1ccc(N2CC[C@H](NS(=O)(=O)c3cc4ccc(Cl)cc4s3)C2=O)c(F)c1` [Example 144, 2-Amino-N-({1-[4-((3S)-3-{[(6-chloro-1-benzothien-2-yl)sulfonyl]amino}-2-oxopyrrolidin-1-yl)-3-fluorophenyl]-1 H-imidazol-2-yl}methyl)-N,N-dimethyl-2-oxoethanaminium Formate], the pKi on human Factor Xa [2] is above 8.00.

Usually pKi stands for −log10 of the Ki, conventionally taken in molar units.
